In patent US8188050B2, “Pharmaceutical and/or cosmetic composition containing peptides” (ISP Investments Inc., priority 2006, dated 2012):
Entries after “also recorded” stand apart in the source; their conditions may differ.

System: Biopsies of human skin
Assay: Ex vivo study of the effect of the peptide on the synthesis of melanin (Fontana-Masson staining of skin biopsies)
Format: cell-based
Settings: two applications daily, peptide 1% starting with a 50-ppm solution, 48 hours
Experimental: The aim of this ex vivo study is to highlight the increase in melanization produced by the peptides according to the invention.
Protocol: Biopsies of human skin 6 mm in diameter are held in an ex vivo culture in the presence of a specific medium (1 g/L DMEM, Ham's F-12, SVF, and antibiotics) on inserts deposited on 6-well plates. […] The duration of the treatment is 48 hours. The biopsies are subsequently fixed in 9% formaldehyde and NaCl (150 mM) for 10 hours and then enclosed in paraffin. Thin-sections of the skin 3 μm thick are then made, and the melanin is specifically stained by the Fontana-Masson technique.

Thr-Leu-Leu-Ala (TLLA) [SEQ ID No. 3, peptide fragment of the protein SLC24A5]
Location/distribution of melanin in the epidermis: located in the basal layer but is also transported into the supra-basal layers; also recorded: stimulates the entire process of melanin distribution in the epidermis | Synthesis of melanin by the melanocytes (conclusion): strong increase in the synthesis of melanin | Intensity of melanin coloration of skin thin-sections (Fontana-Masson staining) (vs. untreated sections): coloration of clearly increased intensity
